{"source": "patent US6465395B2", "about": "“Substituted methylene pyrazolinones and the herbicidal use thereof” (BASF Aktiengesellschaft, priority 2000, dated 2002)", "assay_type_in_all_cases": "in vivo", "set-up_in_all_cases": "scale not given here", "key": {"[1]": {"system": "SETVI, Foxtail, Green, Setaria viridis, (L.) Beau", "assay": "Postemergence herbicidal evaluation", "method": "(§1) The postemergence herbicidal activity of the compounds of the present invention is evaluated by the following tests. Seedling plants are grown in jiffy flats for about two weeks. The test compounds are dispersed in 80/20 (v/v) acetone/water mixtures containing 1.0% SUN-IT®II, a methylated seed oil, in sufficient quantities to provide the equivalent of about 0.006 kg/ha to 0.800 kg/ha of active compound when applied to the plants through a spray nozzle operating at 40 psi for a predetermined time. After spraying, the plants are placed on greenhouse benches and are cared for in accordance with conventional greenhouse procedures. Approximately two to three weeks after treatment, the seedling plants are examined and rated according to the rating system set forth below. Where more than one test is involved for a given compound, the data are averaged."}, "[2]": {"system": "AMBEL, Ragweed, Ambrosia artemisifolia, L.", "assay": "Postemergence herbicidal evaluation", "method": "as §1"}, "[3]": {"system": "IPOSS, Morningglory spp., Ipomoea spp.", "assay": "Postemergence herbicidal evaluation", "method": "as §1"}, "[4]": {"system": "ECHCG, Barnyardgrass, Echinochloa crus-galli, (L.) Beau", "assay": "Postemergence herbicidal evaluation", "method": "as §1"}, "[5]": {"system": "ORYSAT, Rice, Tebonnet, Oryza sativa, (L.) Tebonnet", "assay": "Postemergence herbicidal evaluation", "details": "crop (rice)", "method": "as §1"}, "[6]": {"system": "ABUTH, Velvetleaf, Abutilon theophrasti, Medic.", "assay": "Postemergence herbicidal evaluation", "method": "as §1"}, "[7]": {"system": "PANDI, Panicum, Fall, Panicum dichotomiflorum, Michx", "assay": "Postemergence herbicidal evaluation", "method": "as §1"}, "[8]": {"system": "ZEAMX, Corn, Field, Zea mays, L.", "assay": "Postemergence herbicidal evaluation", "details": "crop (corn)", "method": "as §1"}, "[9]": {"system": "SETVI, Foxtail, Green, Setaria viridis, (L.) Beau", "assay": "Preemergence herbicidal evaluation", "from_the_text": "(§2) The preemergence herbicidal activity of the test compounds of the present invention is exemplified by the following tests in which the seeds of a variety of monocotyledonous and dicotyledonous plants are separately mixed with potting soil and planted on top of approximately one inch of soil in separate pint cups. After planting, the cups are sprayed with the selected aqueous acetone solution containing test compound in sufficient quantity to provide the equivalent of about 0.0125 kg/ha to 0.800 kg/ha of test compound per cup. The treated cups are then placed on greenhouse benches, watered and cared for in accordance with conventional greenhouse procedures. Approximately two to four weeks after treatment, the tests are terminated and each cup is examined and rated according to the rating system provided in Example 12. When more than one test is performed for a given compound, the data are averaged."}, "[10]": {"system": "AMBEL, Ragweed, Ambrosia artemisifolia, L.", "assay": "Preemergence herbicidal evaluation", "from_the_text": "as §2"}, "[11]": {"system": "IPOSS, Morningglory spp., Ipomoea spp.", "assay": "Preemergence herbicidal evaluation", "from_the_text": "as §2"}, "[12]": {"system": "ECHCG, Barnyardgrass, Echinochloa crus-galli, (L.) Beau", "assay": "Preemergence herbicidal evaluation", "from_the_text": "as §2"}, "[13]": {"system": "ORYSAT, Rice, Tebonnet, Oryza sativa, (L.) Tebonnet", "assay": "Preemergence herbicidal evaluation", "details": "crop (rice)", "from_the_text": "as §2"}, "[14]": {"system": "CHEAL, Lambsquarters, Chenopodium album, L.", "assay": "Preemergence herbicidal evaluation", "from_the_text": "as §2"}, "[15]": {"system": "ABUTH, Velvetleaf, Abutilon theophrasti, Medic.", "assay": "Preemergence herbicidal evaluation", "from_the_text": "as §2"}, "[16]": {"system": "GOSHI, Cotton, Gossypium hirsutum, L.", "assay": "Preemergence herbicidal evaluation", "details": "crop (cotton)", "from_the_text": "as §2"}, "[17]": {"system": "PANDI, Panicum, Fall, Panicum dichotomiflorum, Michx", "assay": "Preemergence herbicidal evaluation", "from_the_text": "as §2"}, "[18]": {"system": "ZEAMX, Corn, Field, Zea mays, L.", "assay": "Preemergence herbicidal evaluation", "details": "crop (corn)", "from_the_text": "as §2"}}}
{"substance": "4,4′-[(Z,Z)-Dithiobis[(2,3-dihydro-3,3,4-trimethylbenzo[b]thien-5-yl)methylidyne]]bis[1-methyl-2-pyrazolin-5-one] S,S,S′,S′,-tetraoxide, 80:20 mixture with 4,4′-[(E,Z)-dithiobis[(2,3-dihydro-3,3,4-trimethyl-benzo[b]thien-5-yl)methylidyne]]bis[1-methyl-2-pyrazolin-5-one] S,S,S′,S′-tetraoxide [Example 7]", "values": [{"measurement": "Herbicide rating SETVI", "setting": "[1]; 0.0125 kg/ha", "result": 7.0}, {"measurement": "Herbicide rating SETVI", "setting": "[1]; 0.0250 kg/ha", "result": 7.0}, {"measurement": "Herbicide rating SETVI", "setting": "[1]; 0.0500 kg/ha", "result": 9.0}, {"measurement": "Herbicide rating SETVI", "setting": "[1]; 0.1000 kg/ha", "result": 9.0}, {"measurement": "Herbicide rating AMBEL", "setting": "[2]; 0.0125 kg/ha", "result": 4.0}, {"measurement": "Herbicide rating AMBEL", "setting": "[2]; 0.0250 kg/ha", "result": 7.0}, {"measurement": "Herbicide rating AMBEL", "setting": "[2]; 0.0500 kg/ha", "result": 9.0}, {"measurement": "Herbicide rating AMBEL", "setting": "[2]; 0.1000 kg/ha", "result": 9.0}, {"measurement": "Herbicide rating IPOSS", "setting": "[3]; 0.0125 kg/ha", "result": 1.0}, {"measurement": "Herbicide rating IPOSS", "setting": "[3]; 0.0250 kg/ha", "result": 1.0}, {"measurement": "Herbicide rating IPOSS", "setting": "[3]; 0.0500 kg/ha", "result": 2.0}, {"measurement": "Herbicide rating IPOSS", "setting": "[3]; 0.1000 kg/ha", "result": 2.0}, {"measurement": "Herbicide rating ECHCG", "setting": "[4]; 0.0125 kg/ha", "result": 7.0}, {"measurement": "Herbicide rating ECHCG", "setting": "[4]; 0.0250 kg/ha", "result": 7.0}, {"measurement": "Herbicide rating ECHCG", "setting": "[4]; 0.0500 kg/ha", "result": 8.0}, {"measurement": "Herbicide rating ECHCG", "setting": "[4]; 0.1000 kg/ha", "result": 9.0}, {"measurement": "Herbicide rating ORYSAT", "setting": "[5]; 0.0125 kg/ha", "result": 3.5}, {"measurement": "Herbicide rating ORYSAT", "setting": "[5]; 0.0250 kg/ha", "result": 6.0}, {"measurement": "Herbicide rating ORYSAT", "setting": "[5]; 0.0500 kg/ha", "result": 7.0}, {"measurement": "Herbicide rating ORYSAT", "setting": "[5]; 0.1000 kg/ha", "result": 7.0}, {"measurement": "Herbicide rating ABUTH", "setting": "[6]; 0.0125 kg/ha", "result": 3.0}, {"measurement": "Herbicide rating ABUTH", "setting": "[6]; 0.0250 kg/ha", "result": 4.0}, {"measurement": "Herbicide rating ABUTH", "setting": "[6]; 0.0500 kg/ha", "result": 5.0}, {"measurement": "Herbicide rating ABUTH", "setting": "[6]; 0.1000 kg/ha", "result": 7.0}, {"measurement": "Herbicide rating PANDI", "setting": "[7]; 0.0125 kg/ha", "result": 5.0}, {"measurement": "Herbicide rating PANDI", "setting": "[7]; 0.0250 kg/ha", "result": 3.0}, {"measurement": "Herbicide rating PANDI", "setting": "[7]; 0.0500 kg/ha", "result": 7.0}, {"measurement": "Herbicide rating PANDI", "setting": "[7]; 0.1000 kg/ha", "result": 9.0}, {"measurement": "Herbicide rating ZEAMX", "setting": "[8]; 0.0125 kg/ha", "result": 0.0}, {"measurement": "Herbicide rating ZEAMX", "setting": "[8]; 0.0250 kg/ha", "result": 0.0}, {"measurement": "Herbicide rating ZEAMX", "setting": "[8]; 0.0500 kg/ha", "result": 0.0}, {"measurement": "Herbicide rating ZEAMX", "setting": "[8]; 0.1000 kg/ha", "result": 2.0}]}
{"substance": "4-Methoximino-5-methyl-6-(1-ethyl-5-hydroxypyrazol-4-yl)thiocarbonylthiochroman-1,1-dioxide, zinc (+2) chelate [Example 6]", "values": [{"measurement": "Herbicide rating SETVI", "setting": "[9]; 0.0500 kg/ha", "result": 4.0}, {"measurement": "Herbicide rating SETVI", "setting": "[9]; 0.1000 kg/ha", "result": 7.0}, {"measurement": "Herbicide rating SETVI", "setting": "[9]; 0.2000 kg/ha", "result": 9.0}, {"measurement": "Herbicide rating SETVI", "setting": "[9]; 0.4000 kg/ha", "result": 9.0}, {"measurement": "Herbicide rating SETVI", "setting": "[9]; 0.8000 kg/ha", "result": 9.0}, {"measurement": "Herbicide rating AMBEL", "setting": "[10]; 0.0500 kg/ha", "result": 7.0}, {"measurement": "Herbicide rating AMBEL", "setting": "[10]; 0.1000 kg/ha", "result": 8.0}, {"measurement": "Herbicide rating AMBEL", "setting": "[10]; 0.2000 kg/ha", "result": 9.0}, {"measurement": "Herbicide rating AMBEL", "setting": "[10]; 0.4000 kg/ha", "result": 9.0}, {"measurement": "Herbicide rating AMBEL", "setting": "[10]; 0.8000 kg/ha", "result": 9.0}, {"measurement": "Herbicide rating IPOSS", "setting": "[11]; 0.0500 kg/ha", "result": 1.0}, {"measurement": "Herbicide rating IPOSS", "setting": "[11]; 0.1000 kg/ha", "result": 3.0}, {"measurement": "Herbicide rating IPOSS", "setting": "[11]; 0.2000 kg/ha", "result": 6.0}, {"measurement": "Herbicide rating IPOSS", "setting": "[11]; 0.4000 kg/ha", "result": 5.0}, {"measurement": "Herbicide rating IPOSS", "setting": "[11]; 0.8000 kg/ha", "result": 5.0}, {"measurement": "Herbicide rating ECHCG", "setting": "[12]; 0.0500 kg/ha", "result": 3.0}, {"measurement": "Herbicide rating ECHCG", "setting": "[12]; 0.1000 kg/ha", "result": 9.0}, {"measurement": "Herbicide rating ECHCG", "setting": "[12]; 0.2000 kg/ha", "result": 9.0}, {"measurement": "Herbicide rating ECHCG", "setting": "[12]; 0.4000 kg/ha", "result": 9.0}, {"measurement": "Herbicide rating ECHCG", "setting": "[12]; 0.8000 kg/ha", "result": 8.0}, {"measurement": "Herbicide rating ORYSAT", "setting": "[13]; 0.0500 kg/ha", "result": 4.0}, {"measurement": "Herbicide rating ORYSAT", "setting": "[13]; 0.1000 kg/ha", "result": 7.0}, {"measurement": "Herbicide rating ORYSAT", "setting": "[13]; 0.2000 kg/ha", "result": 9.0}, {"measurement": "Herbicide rating ORYSAT", "setting": "[13]; 0.4000 kg/ha", "result": 9.0}, {"measurement": "Herbicide rating ORYSAT", "setting": "[13]; 0.8000 kg/ha", "result": 9.0}, {"measurement": "Herbicide rating CHEAL", "setting": "[14]; 0.0500 kg/ha", "result": 9.0}, {"measurement": "Herbicide rating CHEAL", "setting": "[14]; 0.1000 kg/ha", "result": 9.0}, {"measurement": "Herbicide rating CHEAL", "setting": "[14]; 0.2000 kg/ha", "result": 9.0}, {"measurement": "Herbicide rating CHEAL", "setting": "[14]; 0.4000 kg/ha", "result": 9.0}, {"measurement": "Herbicide rating CHEAL", "setting": "[14]; 0.8000 kg/ha", "result": 9.0}, {"measurement": "Herbicide rating ABUTH", "setting": "[15]; 0.0500 kg/ha", "result": 9.0}, {"measurement": "Herbicide rating ABUTH", "setting": "[15]; 0.1000 kg/ha", "result": 9.0}, {"measurement": "Herbicide rating ABUTH", "setting": "[15]; 0.2000 kg/ha", "result": 9.0}, {"measurement": "Herbicide rating ABUTH", "setting": "[15]; 0.4000 kg/ha", "result": 9.0}, {"measurement": "Herbicide rating ABUTH", "setting": "[15]; 0.8000 kg/ha", "result": 9.0}, {"measurement": "Herbicide rating GOSHI", "setting": "[16]; 0.0500 kg/ha", "result": 0.0}, {"measurement": "Herbicide rating GOSHI", "setting": "[16]; 0.1000 kg/ha", "result": 1.0}, {"measurement": "Herbicide rating GOSHI", "setting": "[16]; 0.2000 kg/ha", "result": 6.0}, {"measurement": "Herbicide rating GOSHI", "setting": "[16]; 0.4000 kg/ha", "result": 8.0}, {"measurement": "Herbicide rating GOSHI", "setting": "[16]; 0.8000 kg/ha", "result": 7.0}, {"measurement": "Herbicide rating PANDI", "setting": "[17]; 0.0500 kg/ha", "result": 6.0}, {"measurement": "Herbicide rating PANDI", "setting": "[17]; 0.1000 kg/ha", "result": 9.0}, {"measurement": "Herbicide rating PANDI", "setting": "[17]; 0.2000 kg/ha", "result": 9.0}, {"measurement": "Herbicide rating PANDI", "setting": "[17]; 0.4000 kg/ha", "result": 8.0}, {"measurement": "Herbicide rating PANDI", "setting": "[17]; 0.8000 kg/ha", "result": 8.0}, {"measurement": "Herbicide rating ZEAMX", "setting": "[18]; 0.0500 kg/ha", "result": 0.0}, {"measurement": "Herbicide rating ZEAMX", "setting": "[18]; 0.1000 kg/ha", "result": 0.0}, {"measurement": "Herbicide rating ZEAMX", "setting": "[18]; 0.2000 kg/ha", "result": 0.0}, {"measurement": "Herbicide rating ZEAMX", "setting": "[18]; 0.4000 kg/ha", "result": 1.0}, {"measurement": "Herbicide rating ZEAMX", "setting": "[18]; 0.8000 kg/ha", "result": 0.0}]}
